Patent US20230217926A1, “SELECTIVE HERBICIDES BASED ON SUBSTITUTED ISOXAZOLIN CARBOXAMIDES AND ISOXADIFEN-ETHYL” (BAYER AKTIENGESELLSCHAFT, priority 2020, published 2023)

How the values were obtained:
HORVS Montoya [1] = test: Tank-mix post-emergence crop damage, greenhouse, visual assessment; assay type: in vivo, spring barley; details: 10 DAT; for Reduction [%] / Reduction [Difference]: isoxadifen-ethyl 50 g a.i./ha; for HER effect: no safener
Experimental: (§1) Seeds of crops (spring wheat, TRZAS; spring barley, HORVS; maize, ZEAMA) were placed in sandy loam soil in peat pots, covered with soil and cultivated in a greenhouse under good growth conditions. Two to three weeks after sowing, the test plants were treated at the 1 to 3-leaf stage. The herbicide/safener active compound combinations according to the invention, formulated as wettable powders or emulsion concentrates, and, in parallel tests, the correspondingly formulated individual active compounds were sprayed onto the green parts of the plants in various dosages using an amount of water of 300 l/ha (converted).
(§2) The pots were returned under good growing conditions in a glasshouse and a visual assessment of herbicidal effects was made at intervals from 1 to 3 weeks after herbicide application (DAT=days after treatment). Assessment was on a percentage basis in comparison with untreated control plants (0%=no injury, 100%=complete kill).
(§3) Reduction[Difference]=herbicide damage without safener−herbicide damage with safener Reduction[%]=(Reduction[Difference]*100)/herbicide damage without safener
c) Plant Species, Variety: HORVS Montoya, Safener (SAF): Isoxadifen-Ethyl

TRZAS Triso [2] = test: as above; assay type: in vivo, spring wheat; details: 21 DAT; for Reduction [%] / Reduction [Difference]: isoxadifen-ethyl 50 g a.i./ha; for HER effect: no safener
Experimental: as §1, §2, §3
5d) Plant Species, Variety: TRZAS Triso, Safener (SAF): Isoxadifen-Ethyl

TRZAS Triso [3] = test: Safener seed treatment, pre-emergence herbicide, crop damage; assay type: in vivo, spring wheat; design: key to Reduction [Difference]: % crop damage without safener minus % damage with safener; details: for Reduction [%] / Reduction [Difference]: isoxadifen-ethyl 0.25 g a.i./kg seed; for HER effect + SAF: isoxadifen-ethyl seed treatment 0.25 g a.i./kg seed; for HER effect: no safener
Experimental: (§4) For the safener seed treatment, sufficient seeds of the respective crops (spring wheat, TRZAS; spring barley, HORVS; maize, ZEAMA) were weighed into screw top glass bottles approximately twice the volume of the seeds.
(§5) The specified safeners, formulated as wettable powder (WP) were weighed out so that the specified rates (g a.i./kg seed) would be obtained, dissolved in water (1 ml water per 10 g of seeds), and added to the seeds to produce a slurry.
(§6) The bottles were capped and then placed in an overhead shaker (set at medium speed for ca. 60 minutes) so that the seeds were evenly coated with the slurry. The bottles were uncapped and the seeds were either placed on paper and dried for an interval of 3-4 hours prior to sowing, or directly sown. Seeds were placed in sandy loam soil in pots of a diameter of 7-8 cm, and covered with soil.
(§7) Pre-emergence application of the specified herbicides was done subsequently, on two sets of plants: a) seed treatment with safener, as described above
(§8) The herbicides were formulated as WP and was sprayed onto the soil surface as an aqueous suspension at an equivalent water application rate of 300 l/ha.
(§9) After application, the test plants were kept in the greenhouse under good growth conditions. At intervals up to 4 weeks after application (=28 days after treatment; DAT), % crop damage observed on the treated plants was scored visually in comparison to control plants that had not received any safener or herbicide treatment.
(§10) Values in the table below are mean values of at least 2 replicates.
Reduction[Difference]=herbicide damage without safener−herbicide damage with safener Reduction[%]=(Reduction[Difference]*100)/herbicide damage without safener a) Plant Species, Variety: TRZAS Triso, Safener (SAF): Isoxadifen-Ethyl

HORVS Montoya [4] = test: as above; assay type: in vivo, spring barley; design: key to Reduction [Difference]: % crop damage without safener minus % damage with safener; details: HER 15 g a.i./ha pre-emergence; for Reduction [%] / Reduction [Difference]: isoxadifen-ethyl 0.25 g a.i./kg seed; for HER effect + SAF: isoxadifen-ethyl seed treatment 0.25 g a.i./kg seed; for HER effect: no safener
Experimental: as §4, §5, §6, §7, §8, §9, §10
Reduction[Difference]=herbicide damage without safener−herbicide damage with safener Reduction[%]=(Reduction[Difference]*100)/herbicide damage without safener b) Plant Species, Variety: HORVS Montoya, Safener (SAF): Isoxadifen-Ethyl

ZEAMA Sileno [5] = test: as above; assay type: in vivo, maize; design: key to Reduction [Difference]: % crop damage without safener minus % damage with safener; details: for Reduction [%] / Reduction [Difference]: isoxadifen-ethyl 0.25 g a.i./kg seed; for HER effect + SAF: isoxadifen-ethyl seed treatment 0.25 g a.i./kg seed; for HER effect: no safener
ZEAMA Sileno [6] = test: Tank-mix post-emergence crop damage, greenhouse, visual assessment; assay type: in vivo, maize; design: key to Reduction [Difference]: % points: herbicide damage without safener − damage with safener
[7] = HER 0.5 g a.i./ha + isoxadifen-ethyl 50 g a.i./ha
[8] = HER 15 g a.i./ha pre-emergence, 11 DAT (Interim)
[9] = HER 15 g a.i./ha pre-emergence, 21 DAT (Final)
[10] = HER 40 g a.i./ha pre-emergence, 26 DAT
[11] = HER 80 g a.i./ha pre-emergence, 14 DAT
[12] = HER 80 g a.i./ha pre-emergence, 26 DAT
[13] = HER 2 g a.i./ha, isoxadifen-ethyl 50 g a.i./ha, Final
[14] = HER 0.25 g a.i./ha + isoxadifen-ethyl 50 g a.i./ha
[15] = HER 5 g a.i./ha pre-emergence, 11 DAT (Interim)
[16] = HER 5 g a.i./ha pre-emergence, 21 DAT (Final)
[17] = HER 40 g a.i./ha pre-emergence, 14 DAT

Compound: C=CC1(C(=O)NC2C=CC(C(=O)OC)C2)CC(c2cc(F)cc(F)c2)=NO1 (centres unmarked) [Example 1.26]
- HER effect + SAF (HORVS Montoya [1]; [7]): 10%
- Reduction [%] (HORVS Montoya [1]; HER 0.5 g a.i./ha): 75%
- Reduction [Difference] (HORVS Montoya [1]; HER 0.5 g a.i./ha): 30
- HER effect (HORVS Montoya [1]; HER 0.5 g a.i./ha): 40%
- HER effect + SAF (HORVS Montoya [1]; HER 2 g a.i./ha + isoxadifen-ethyl 50 g a.i./ha): 50%
- Reduction [%] (HORVS Montoya [1]; HER 2 g a.i./ha): 29%
- Reduction [Difference] (HORVS Montoya [1]; HER 2 g a.i./ha): 20
- HER effect (HORVS Montoya [1]; HER 2 g a.i./ha): 70%
- HER effect + SAF (TRZAS Triso [2]; [7]): 10%
- Reduction [%] (TRZAS Triso [2]; HER 0.5 g a.i./ha): 75%
- Reduction [Difference] (TRZAS Triso [2]; HER 0.5 g a.i./ha): 30
- HER effect (TRZAS Triso [2]; HER 0.5 g a.i./ha): 40%
- Reduction [%] (TRZAS Triso [3]; [8]): 31%
- Reduction [Difference] (TRZAS Triso [3]; [8]): 20
- Reduction [%] (TRZAS Triso [3]; [9]): 80%
- Reduction [Difference] (TRZAS Triso [3]; [9]): 60
- HER effect + SAF (TRZAS Triso [3]; [8]): 45%
- HER effect + SAF (TRZAS Triso [3]; [9]): 15%
- HER effect (TRZAS Triso [3]; [8]): 65%
- HER effect (TRZAS Triso [3]; [9]): 75%
- Reduction [%] (HORVS Montoya [4]; 21 DAT (Final)): 90%
- Reduction [Difference] (HORVS Montoya [4]; 21 DAT (Final)): 45
- HER effect + SAF (HORVS Montoya [4]; 21 DAT (Final)): 5%
- HER effect (HORVS Montoya [4]; 21 DAT (Final)): 50%
- Reduction [%] (ZEAMA Sileno [5]; [10]): 90%
- Reduction [Difference] (ZEAMA Sileno [5]; [10]): 45
- HER effect + SAF (ZEAMA Sileno [5]; [10]): 5%
- HER effect (ZEAMA Sileno [5]; [10]): 50%
- Reduction [%] (ZEAMA Sileno [5]; [11]): 36%
- Reduction [Difference] (ZEAMA Sileno [5]; [11]): 25
- Reduction [%] (ZEAMA Sileno [5]; [12]): 79%
- Reduction [Difference] (ZEAMA Sileno [5]; [12]): 55
- HER effect + SAF (ZEAMA Sileno [5]; [11]): 45%
- HER effect + SAF (ZEAMA Sileno [5]; [12]): 15%
- HER effect (ZEAMA Sileno [5]; [11]): 70%
- HER effect (ZEAMA Sileno [5]; [12]): 70%

Compound: C=CC1(C(=O)NC2COC(C(=O)OC)C2)CC(c2cc(F)cc(F)c2)=NO1 (mixture of isomers) [Example 1.68]
- HER effect + SAF (ZEAMA Sileno [6]; HER 2 g a.i./ha + isoxadifen-ethyl 50 g a.i./ha, Final): 25%
- Reduction [%] (ZEAMA Sileno [6]; [13]): 58%
- Reduction [Difference] (ZEAMA Sileno [6]; [13]): 35
- HER effect (ZEAMA Sileno [6]; HER 2 g a.i./ha, no safener, Final assessment, 0%=no injury, 100%=complete kill): 60%
- HER effect + SAF (HORVS Montoya [1]; [14]): 0%
- Reduction [%] (HORVS Montoya [1]; HER 0.25 g a.i./ha): 100%
- Reduction [Difference] (HORVS Montoya [1]; HER 0.25 g a.i./ha): 20
- HER effect (HORVS Montoya [1]; HER 0.25 g a.i./ha): 20%
- HER effect + SAF (TRZAS Triso [2]; [14]): 20%
- Reduction [%] (TRZAS Triso [2]; HER 0.25 g a.i./ha): 50%
- Reduction [Difference] (TRZAS Triso [2]; HER 0.25 g a.i./ha): 20
- HER effect (TRZAS Triso [2]; HER 0.25 g a.i./ha): 40%
- HER effect + SAF (TRZAS Triso [2]; HER 1 g a.i./ha + isoxadifen-ethyl 50 g a.i./ha): 70%
- Reduction [%] (TRZAS Triso [2]; HER 1 g a.i./ha): 25%
- Reduction [Difference] (TRZAS Triso [2]; HER 1 g a.i./ha): 23
- HER effect (TRZAS Triso [2]; HER 1 g a.i./ha): 93%
- Reduction [%] (TRZAS Triso [3]; [15]): 44%
- Reduction [Difference] (TRZAS Triso [3]; [15]): 20
- Reduction [%] (TRZAS Triso [3]; [16]): 56%
- Reduction [Difference] (TRZAS Triso [3]; [16]): 25
- HER effect + SAF (TRZAS Triso [3]; [15]): 25%
- HER effect + SAF (TRZAS Triso [3]; [16]): 20%
- HER effect (TRZAS Triso [3]; [15]): 45%
- HER effect (TRZAS Triso [3]; [16]): 45%
- Reduction [%] (HORVS Montoya [4]; 11 DAT (Interim)): 31%
- Reduction [Difference] (HORVS Montoya [4]; 11 DAT (Interim)): 20
- HER effect + SAF (HORVS Montoya [4]; 11 DAT (Interim)): 45%
- HER effect (HORVS Montoya [4]; 11 DAT (Interim)): 65%
- Reduction [%] (ZEAMA Sileno [5]; [17]): 25%
- Reduction [Difference] (ZEAMA Sileno [5]; [17]): 23
- HER effect + SAF (ZEAMA Sileno [5]; [17]): 70%
- HER effect (ZEAMA Sileno [5]; [17]): 93%
